Active and inactive are the calls of the source. No rule for the calls is given here.

One assay addresses glutathione S-transferase (GST-GSH binding). The experiment in a line: GST–glutathione interaction disruption – biochemical, multiplex beads, flow cytometry, HPSMTB buffer, profiling panel (AID 1324).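 Also: glutathione beads loaded with GST-green fluorescent protein and no fluorescent Bim peptide.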 The conditions noted are these: multiplex bead flow cytometry, MCF.
For the molecule `O=S1(=O)N=C(N(CCO)/N=C/c2ccncc2)c2ccccc21`, the EC50 entry was “inactive”.
On the same count and under the same terms, to `CC1=CC(=O)c2c(O)ccc(O)c2C1=O` belongs “inactive”.
The same measure, in the same setting: to `Cc1cccc(/C=N/N(CCO)C2=NS(=O)(=O)c3ccccc32)c1` belongs “inactive”.

The assay is the same for the next values; noted with them: multiplex bead flow cytometry, MCF, concentration not given here.
With `COc1ccc(C2(NC(C)=O)CCN(C(=O)c3ccco3)CC2)cc1`, the percent span inhibition entry was “inactive”.
On the same count and under the same terms, with `O=C(O)c1ccc(NS(=O)(=O)c2ccc3c(c2)C(=O)c2ccccc2C3=O)cc1` the entry was “inactive”; with `CN(CCO)c1cc(Sc2nc3ccccc3s2)c2nonc2c1[N+](=O)[O-]`, “inactive”.
The same measure, in the same setting: with `CCOC(=O)c1c(NC(C)=O)sc2c(O)c(Br)cc(Br)c12` the entry was “inactive”; with `Cc1cc(NC(=O)CCCC(=O)NCc2ccccc2)no1`, “inactive”; with `Cc1ccc2c(c1)c(C)c(C)n2CC(O)Cn1nc(C)c(Br)c1C` (stereo not drawn), “inactive”.
On the same count and under the same terms, to `S=C1NC2=C(CCC/C2=C\c2ccccc2)C(c2ccccc2)N1` (stereo not drawn) belongs “inactive”; to `Fc1ccc(C2=Nc3cccc4cccc(c34)N2)cc1`, “inactive”; to `CCOC(=O)c1c(NC(=O)c2ccccc2N(C)S(=O)(=O)c2ccccc2)sc2c1CCCC2`, “inactive”.
On to `CCN(CC)C(=O)COC(=O)c1cc(-c2ccco2)nc2ccccc12`, for which the percent span inhibition result is “inactive”.
Same read-out and setting: to `O=C(C1=NN[C@@H]2C(=O)N(c3cccc(F)c3)C(=O)[C@H]12)c1ccc2ccccc2n1` belongs “inactive”; to `COC(=O)c1cccc(-n2c(C)cc(C=O)c2C)c1`, “inactive”; to `C=CCn1c(C)c(C(C)=O)c(N2CCOCC2)nc1=S`, “inactive”.
Still for that read-out and setting: to `COc1ccc(-c2csc(NC(=O)/C(N=Nc3ccccc3)=C(\C)O)n2)cc1` belongs “inactive”; to `CCCn1c(C)cc(-c2csc(N)n2)c1C`, “inactive”.
On the same count and under the same terms, with `O=C(O)CCN1C(=O)/C(=C\c2ccc(-c3nc4ccccc4s3)o2)SC1=S` the entry was “inactive”; with `NC(=O)c1c(NC(=O)C2CCCO2)sc2c1CCCC2` (stereo not drawn), “inactive”; with `Cc1nc(NC(=O)CC(C)C)sc1-c1csc(Nc2ccc(Cl)cc2)n1`, “inactive”.
As to `c1ccc(-c2nc(N3CCCCCC3)c3ccccc3n2)nc1`, the percent span inhibition result is “inactive”.
Turning to `C=CCn1c(SCC(=O)Nc2ccc3c(c2)OCO3)nnc1-c1cc(Br)ccc1O`, the percent span inhibition entry was “inactive”.
The same measure, in the same setting: with `NCC(c1ccccc1)c1c[nH]c2ccccc12` (stereo not drawn) the entry was “inactive”; with `CC1Nc2ccccc2C(=O)N1NS(=O)(=O)c1ccccc1` (stereo not drawn), “inactive”; with `CNc1ccc(Br)cc(C(=O)/C=C/c2ccc(OC)cc2OC)c1=O`, “inactive”.
On to `O=[N+]([O-])c1c(NCCO)cc(Sc2nc3ccccc3s2)c2nonc12`, for which the percent span inhibition result was “inactive”.
The same measure, in the same setting: with `COc1cccc(/C=N/Nc2nn3cnnc3c3ccccc23)c1O` the entry was “inactive”.
Same read-out and setting: to `COc1ccccc1NC1=C(NC(C)=O)C(=O)c2ccccc2C1=O` belongs “inactive”; to `CC1=NN(c2ccc(C)cc2)C(=O)/C1=C\c1ccc(Br)s1`, “inactive”.
Consider `COc1ccc(C(=O)/C=C/c2cc(OC)c(O)c(OC)c2)c(F)c1`, for which the percent span inhibition entry was “inactive”.
Still for that read-out and setting: with `CCOC(=O)C1=C(CC)Nc2ccccc2N=C1NC(=O)c1ccc(S(=O)(=O)N2CCOCC2)cc1` the entry was “inactive”; with `COc1ccc(-n2cc(-c3ccc(OC)c(OC)c3)[nH]c2=S)cc1`, “inactive”; with `CCOCCOc1nc2c(c(=O)n(C)c(=O)n2C)n1CCc1ccccc1`, “inactive”.
The same measure, in the same setting: to `COc1ccc(N=C2NC(=O)/C(=C\C=C\c3ccco3)S2)cc1` belongs “inactive”; to `CC1C=CCC2C(=O)N(c3ccc(OC(=O)c4cccs4)cc3)C(=O)C12` (stereo not drawn), “inactive”; to `Cc1cc(-c2csc(N)n2)c(C)n1CCc1ccccc1`, “inactive”.
Same read-out and setting: with `CC1=C2C(CCS2(=O)=O)CC2(C1)C(=O)OC(C)(C)OC2=O` (stereo not drawn) the entry was “inactive”.
In the case of `CN1/C(=C\C(=O)Nc2ccc(Cl)cc2)C(C)(C)c2ccccc21`, the percent span inhibition entry is “inactive”.
With `COC(=O)Cc1ccc(NC(=S)N2CCN(c3cccc(O)c3)CC2)cc1`, the percent span inhibition result was “inactive”.
The same measure, in the same setting: to `CCN1CCN(c2cc(C)c3cc(NC(=S)N4CCCCC4)ccc3n2)CC1` belongs “inactive”.
The same measure, in the same setting: to `COc1cc(/C=C2/NC(=O)N(Cc3ccccc3F)C2=O)cc(OC)c1O` belongs “inactive”; to `O=C(C1=C(Nc2ccccc2)c2ccccc2S(=O)(=O)N1)c1ccccc1`, “inactive”; to `CN1C2C=C3C(C#N)=C(N)C(C#N)(C#N)[C@@H](c4ccsc4)[C@@H]3C1CC2` (stereo partly drawn), “inactive”.
Still for that read-out and setting: to `CCN1C(=O)/C(=C\C=C2/C=CC=CN2CC)SC1=S` belongs “inactive”; to `CC1CCN(C2(O)C(=O)Nc3ccc(Br)cc32)CC1` (stereo not drawn), “inactive”; to `O=C1C(Cl)=C(N2CCN(c3ccccc3[N+](=O)[O-])CC2)C(=O)c2ccccc21`, “inactive”.
For `COc1cccc(/C=N/NC(=O)c2cc3cc([N+](=O)[O-])ccc3s2)c1O`, the percent span inhibition entry is “inactive”.
On the same count and under the same terms, with `O=C(O)c1ccccc1NSc1ccccc1[N+](=O)[O-]` the entry was “inactive”; with `COCc1cc(CN2CCCC(CNC(=O)c3ccc(F)cc3)C2)ccc1OC` (stereo not drawn), “inactive”.
Still for that read-out and setting: with `CN=c1scc(-c2cccs2)n1/N=C/c1ccc(O)c(O)c1O` the entry was “inactive”; with `O=c1[nH]c2ccc(N=Cc3c(O)ccc4cc(Br)ccc34)cc2[nH]1`, “inactive”; with `CCOc1cc(NC(=S)NC)c(OCC)cc1NC(=O)c1ccc(OC)cc1`, “inactive”.
In the case of `O=C(NCCCN1CCN(CCCNC(=O)c2cc([N+](=O)[O-])ccc2Cl)CC1)c1cc([N+](=O)[O-])ccc1Cl`, the percent span inhibition result was “inactive”.
Still for that read-out and setting: with `COc1ccc(N2C(=O)C(Cl)=C(Nc3c(C)n(C)n(-c4ccccc4)c3=O)C2=O)cc1` the entry was “inactive”; with `COc1cccc(NC(=O)CSc2nncn2N)c1`, “inactive”.
Still for that read-out and setting: to `Cc1ccc(NS(=O)(=O)c2cc(NC(=O)c3ccc4c(c3)NC(=O)CS4)ccc2C)c(C)c1` belongs “inactive”; to `CN=c1scc(C)n1/N=C/c1ccc(O)c(O)c1O`, “inactive”.
Same read-out and setting: to `O=C(Nc1ccc(N2CCOCC2)cc1)Nc1ccc2nc(-c3ccco3)c(-c3ccco3)nc2c1` belongs “inactive”; to `O=C(Nc1n[nH]c(C(F)(F)F)n1)C1CC1`, “inactive”; to `CCCOc1ccc(-c2c(C(=O)N/N=C/c3ccc(OC)cc3)nnn2-c2nonc2N)cc1`, “inactive”.
`COc1ccc(OC)c(NC(=O)COC(=O)c2cc3c(s2)CCC3)c1`: the percent span inhibition entry was “inactive”.
Regarding `COC(=O)c1cc(OC)c(OC)cc1NC(=O)Nc1cccc(C(C)=O)c1`, the percent span inhibition entry is “inactive”.
Still for that read-out and setting: to `COc1ccc(NC(=O)c2c(F)cccc2F)cc1S(=O)(=O)Nc1ccc(Br)cc1` belongs “inactive”; to `CC1Cc2ccccc2N1C(=O)CSc1nnnn1-c1ccc2c(c1)OCCO2` (stereo not drawn), “inactive”; to `O=C(CSc1nnc(Cc2ccccc2)o1)NCc1ccco1`, “inactive”.
The same measure, in the same setting: with `O=C(NC1=NCCS1)NC12CC3CC(CC(C3)C1)C2` the entry was “inactive”; with `N#Cc1ccc(N=c2ssnc2Cl)cc1`, “inactive”; with `Cc1cc(OCc2cn3cccnc3n2)ccc1Cl`, “inactive”.
Still for that read-out and setting: to `COc1ccc(S(=O)(=O)NCCSc2ccccc2)cc1OC` belongs “inactive”; to `S=C(NCCc1ccccc1)NCCc1ccccc1`, “inactive”; to `O=C(c1ccccc1)c1ccc2nc(-c3ccco3)c(-c3ccco3)nc2c1`, “inactive”.
Turning to `Cc1ccc(/C=C2/NC(=O)N(Cc3ccc(Br)cc3)C2=O)o1`, the percent span inhibition result was “inactive”.
Same read-out and setting: to `CCOC(=O)C1=C(CP(=O)(c2ccccc2)c2ccccc2)NC(=O)NC1c1ccc(OC)cc1` (stereo not drawn) belongs “inactive”; to `COc1ccccc1OCc1ccc(C(=O)Nc2ccccc2F)cc1`, “inactive”; to `CC(NC(=O)Nc1ccccn1)N1C(=O)C2C3C=CC(C3)C2C1=O` (stereo not drawn), “inactive”.
The same measure, in the same setting: with `COc1ccccc1NC(=O)CSc1ncn(-c2ccccc2)n1` the entry was “inactive”; with `CCC(=O)OCCNc1cc(Sc2nccn2C)c2nonc2c1[N+](=O)[O-]`, “inactive”.
Same read-out and setting: with `O=C(Nc1ccc(Cl)cn1)Nc1ccccc1F` the entry was “inactive”; with `Cc1cc(N2CCN(C)CC2)nc2ccc(NC(=S)N3CCC4(CC3)OCCO4)cc12`, “inactive”.
Turning to `COc1ccc(C)cc1Nc1ccc(C(=O)O)cc1[N+](=O)[O-]`, the percent span inhibition entry was “inactive”.
As to `CCCCc1ccc(NC(=S)NCc2ccc(OC)cc2)cc1`, the percent span inhibition entry was “inactive”.
On the same count and under the same terms, to `CC(C)c1ccc(/C=N/NC(=O)c2ccccc2Cl)cc1` belongs “inactive”; to `CCOc1cc(S(=O)(=O)Nc2ccccn2)ccc1F`, “inactive”; to `Cc1ccc(CNc2ccc3c(c2)OCO3)c(C)c1`, “inactive”.
As to `COc1ccc(CC(=O)Nc2ccc(-c3nc4cc(C)ccc4o3)c(O)c2)cc1OC`, the percent span inhibition entry is “inactive”.
Same read-out and setting: to `Cc1ccc(NC(=S)N2CCn3cccc3C2c2cccnc2)cc1` (stereo not drawn) belongs “inactive”; to `N#Cc1cccc(N=c2ssnc2Cl)c1`, “inactive”.
